# Results as given in patent publication US9656959B2, “Substituted pyridines as sodium channel blockers” (Purdue Pharma L.P., priority 2010, dated 2017).
# Like-named read-outs stand apart in the source and are kept apart here.
# Legend:
# human Nav1.7 = human Nav1.7 (Homo sapiens (Human), UniProt Q15858); assay: FLIPR or FLIPR TETRA sodium dye assay with KCl and test article pre-incubation; assay type: cell-based
# hNav1.7 = hNav1.7 (Homo sapiens (Human), UniProt Q15858); assay: Electrophysiology (EP) assay, whole-cell patch clamp; assay type: cell-based; settings: hNav1.7 HEK-293 cells; for Ki: affinity for the inactivated state of the channel, read-out: Nav1.7 Activity (μM) EP assay Ki; for Kd: resting block dissociation constant, read-out: Nav1.7 Activity (μM) EP assay Kr
# Protocol: The hNav1.7 expressing HEK-293 cells were plated on 35 mm culture dishes pre-coated with poly-D-lysine in standard DMEM culture media (Mediatech, Inc., Herndon, Va.) and incubated in a 5% CO2 incubator at 37° C. Cultured cells were used approximately 12-48 hours after plating.
# On the day of experimentation, the 35 mm dish was placed on the stage of an inverted microscope equipped with a perfusion system that continuously perfuses the culture dish with fresh recording media. A gravity driven superfusion system was used to apply test solutions directly to the cell under evaluation. This system consists of an array of glass pipette connected to a motorized horizontal translator. The outlet of the shooter was positioned approximately 100 μm from the cell of interest.
# Whole cell currents were recorded using the whole-cell patch clamp configuration using an Axopatch 200B amplifier (Axon Instruments, Foster City Calif.), 1322A A/D converter (Axon Instruments) and pClamp software (v. 8; Axon Instruments) and stored on a personal computer. Gigaseals were formed and the whole-cell configuration was established in voltage clamp mode, and membrane currents generated by hNav1.7 were recorded in gap-free mode. Borosilicate glass pipettes have resistance values between 1.5 and 2.0 MΩ when filled with pipette solution and series resistance (<5 MΩ) was compensated 75-80%. Signals were sampled at 50 kHz and low pass filtered at 3 kHz.
# After establishing the whole-cell configuration in voltage clamp mode, voltage protocols were run to establish the 1) test potential, 2) holding potential, and 3) the conditioning potential for each cell.
# After establishing the whole-cell configuration in voltage clamp mode, a standard I-V protocol was run to determine the potential at which the maximal current (Imax) is elicited. This potential was the test potential (Vt). […] This protocol also permitted determination of the holding potential at which all channels are in the resting state.
# For compounds causing significant retardation of recovery from inactivation, an estimate of the affinity for the inactivated state of the channel (Ki) was generated using the following protocol. From the negative, no residual inactivation, holding potential, the cell was depolarized to the conditioning voltage for 2-5 seconds, returned to the negative holding potential for 10-20 ms to relieve fast inactivation and then depolarized to the test potential for ˜15 ms. This voltage protocol was repeated every 10-15 seconds, first to establish a baseline in the absence of the test compound, then in the presence of the test compound.
# After a stable baseline was established, the test compound was applied and block of the current elicited by the test pulse assessed. In some cases, multiple cumulative concentrations were applied to identify a concentration that blocked between 40-60% of this current. Washout of the compound was attempted by superfusing with control solution once steady-state block was observed. An estimate of the K, was calculated as follows: Ki=[drug]*{FR/(1−FR)}, Eq. 1
# where [drug] is the concentration of a drug, and FR=I(after drug)/I(control), Eq. 2 where I is the peak current amplitude. If multiple concentrations were used, Ki was determined from the fit of a logistic equation to FRs plotted against corresponding drug concentrations.
# In the alternative, the voltage clamp protocol to examine hNav1.7 currents was as follows. First, the standard current-voltage relationship was tested by pulsing the cell from the holding voltage (Vh) of −120 mV by a series of 5 msec long square-shaped test pulses incrementing in +10 mV steps over the membrane voltage range of −90 mV to +60 mV at the pace of stimulation of 0.5 Hz. This procedure determines the voltage that elicits the maximal current (Vmax). […]
# [1] = recombinant Nav1.7/HEK293 cells, CoroNa Green sodium dye, veratridine + scorpion venom agonists, ± SEM
# [2] = read-out: Nav1.7 Activity (μM) FLIPR assay IC50 (μM) ± SEM
# hNav1.7, sequence (Q15858 other isoform, or with tags, fused parts or gaps): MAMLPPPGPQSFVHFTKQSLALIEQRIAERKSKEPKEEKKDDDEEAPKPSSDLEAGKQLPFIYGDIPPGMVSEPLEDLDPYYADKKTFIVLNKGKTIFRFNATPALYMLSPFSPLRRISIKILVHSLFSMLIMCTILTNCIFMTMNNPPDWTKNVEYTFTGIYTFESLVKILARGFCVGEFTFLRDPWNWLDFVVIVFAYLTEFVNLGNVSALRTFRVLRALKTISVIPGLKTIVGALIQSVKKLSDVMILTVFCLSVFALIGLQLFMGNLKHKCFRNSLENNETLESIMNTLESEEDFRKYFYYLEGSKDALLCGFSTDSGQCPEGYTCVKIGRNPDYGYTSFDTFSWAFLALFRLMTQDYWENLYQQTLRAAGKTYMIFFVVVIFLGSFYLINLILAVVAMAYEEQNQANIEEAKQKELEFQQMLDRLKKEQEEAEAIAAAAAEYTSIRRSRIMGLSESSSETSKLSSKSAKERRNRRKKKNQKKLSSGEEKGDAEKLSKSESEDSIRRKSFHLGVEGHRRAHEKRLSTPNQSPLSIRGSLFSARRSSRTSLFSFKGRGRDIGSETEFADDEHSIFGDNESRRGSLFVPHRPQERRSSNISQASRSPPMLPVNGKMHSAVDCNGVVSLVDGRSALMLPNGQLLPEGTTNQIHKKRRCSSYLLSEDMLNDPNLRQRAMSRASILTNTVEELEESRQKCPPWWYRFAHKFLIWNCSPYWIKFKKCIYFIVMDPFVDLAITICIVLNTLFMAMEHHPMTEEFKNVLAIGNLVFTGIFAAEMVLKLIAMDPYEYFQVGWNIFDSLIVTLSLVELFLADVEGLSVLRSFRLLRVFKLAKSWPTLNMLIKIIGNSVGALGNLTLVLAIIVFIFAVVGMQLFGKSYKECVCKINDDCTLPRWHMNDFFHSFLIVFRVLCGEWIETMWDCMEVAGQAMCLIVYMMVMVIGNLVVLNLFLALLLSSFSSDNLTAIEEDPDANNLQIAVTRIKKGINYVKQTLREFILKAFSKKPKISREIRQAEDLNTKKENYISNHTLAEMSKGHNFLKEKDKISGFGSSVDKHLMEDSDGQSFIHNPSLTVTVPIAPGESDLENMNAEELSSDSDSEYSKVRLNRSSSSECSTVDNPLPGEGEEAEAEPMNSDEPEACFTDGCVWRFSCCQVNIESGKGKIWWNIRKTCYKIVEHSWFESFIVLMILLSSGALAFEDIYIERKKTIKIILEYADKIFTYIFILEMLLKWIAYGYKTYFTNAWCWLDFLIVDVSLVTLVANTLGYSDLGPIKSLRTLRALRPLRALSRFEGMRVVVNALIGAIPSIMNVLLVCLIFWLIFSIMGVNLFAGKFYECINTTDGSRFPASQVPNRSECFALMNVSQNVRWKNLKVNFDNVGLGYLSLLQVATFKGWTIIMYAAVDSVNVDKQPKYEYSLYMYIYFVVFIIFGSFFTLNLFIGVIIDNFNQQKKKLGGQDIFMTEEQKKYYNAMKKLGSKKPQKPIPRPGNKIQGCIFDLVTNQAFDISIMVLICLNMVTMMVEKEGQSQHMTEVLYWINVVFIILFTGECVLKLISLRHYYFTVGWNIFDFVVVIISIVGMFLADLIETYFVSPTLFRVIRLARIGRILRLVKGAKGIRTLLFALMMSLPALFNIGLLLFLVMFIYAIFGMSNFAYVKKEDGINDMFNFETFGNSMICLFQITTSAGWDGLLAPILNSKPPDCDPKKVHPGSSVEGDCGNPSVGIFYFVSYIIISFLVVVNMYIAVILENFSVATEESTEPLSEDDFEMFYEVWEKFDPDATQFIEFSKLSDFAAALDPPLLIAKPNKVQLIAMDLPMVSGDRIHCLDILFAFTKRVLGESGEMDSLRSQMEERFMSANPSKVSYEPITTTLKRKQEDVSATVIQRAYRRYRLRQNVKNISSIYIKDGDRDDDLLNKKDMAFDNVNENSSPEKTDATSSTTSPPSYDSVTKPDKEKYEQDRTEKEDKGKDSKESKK
# human Nav1.7, sequence (Q15858 with tags, fused parts or gaps limits assumed): as the sequence (Q15858 other isoform, or with tags, fused parts or gaps) above
structure (smiles),measurement,setting,value
"CC(=O)N[C@@H](CC(C)C)C(=O)Nc1cccc(-c2ccc(Oc3ccc(F)cc3)cc2)n1 [Compound 3, (S)-2-acetamido-N-(6-(4-(4-fluorophenoxy)phenyl)pyridin-2-yl)-4-methylpentanamide]",IC50,human Nav1.7; [1],0.042 ± 0.02 µM
same,Ki,hNav1.7,0.194 ± 0.07 µM
"CC(=O)N[C@@H](Cc1ccccc1)C(=O)Nc1cccc(-c2ccc(Oc3ccc(F)cc3)cc2)n1 [Compound 4, (S)-2-acetamido-N-(6-(4-(4-fluorophenoxy)phenyl)pyridin-2-yl)-3-phenylpropanamide]",IC50,human Nav1.7; [1],0.064 ± 0.02 µM
same,Ki,hNav1.7,0.13 ± 0.03 µM
"CC(C)C[C@H](NC(=O)c1ccccn1)C(=O)Nc1cccc(-c2ccc(Oc3ccc(F)cc3)cc2)n1 [Compound 7, (S)-N-(1-((6-(4-(4-fluorophenoxy)phenyl)pyridin-2-yl)amino)-4-methyl-1-oxopentan-2-yl)picolinamide]",IC50,human Nav1.7; [2],0.067 ± 0.007 µM
same,Ki,hNav1.7,0.059 ± 0.01 µM
same,Kd,hNav1.7,18 ± 1 µM
"CC(C)C[C@H](NC(N)=O)C(=O)Nc1cccc(-c2ccc(Oc3ccc(F)cc3)cc2)n1 [Compound 12, (S)-N-(6-(4-(4-fluorophenoxy)phenyl)pyridin-2-yl)-4-methyl-2-ureidopentanamide]",IC50,human Nav1.7; [1],0.096 ± 0.004 µM
same,Ki,hNav1.7,0.257 ± 0.06 µM
same,Kd,hNav1.7,5.06 µM
"CC(C)C[C@H](NC(=O)NC(C)(C)C)C(=O)Nc1cccc(-c2ccc(Oc3ccc(F)cc3)cc2)n1 [Compound 13, (S)-2-(3-(tert-butyl)ureido)-N-(6-(4-(4-fluorophenoxy)phenyl)pyridin-2-yl)-4-methylpentanamide]",IC50,human Nav1.7; [1],0.075 ± 0.017 µM
same,Ki,hNav1.7,0.075 ± 0.02 µM
same,Kd,hNav1.7,10.2 ± 0.2 µM
"CC(=O)N[C@@H](Cc1c[nH]cn1)C(=O)Nc1cccc(-c2ccc(Oc3ccc(F)cc3)cc2)n1 [Compound 32, (S)-2-acetamido-N-(6-(4-(4-fluorophenoxy)phenyl)pyridin-2-yl)-3-(1H-imidazol-4-yl)propanamide]",IC50,human Nav1.7; [2],0.086 ± 0.02 µM
same,Ki,hNav1.7,0.025 µM
same,Kd,hNav1.7,0.58 ± 0.1 µM
"O=C(N[C@@H](Cc1c[nH]cn1)C(=O)Nc1cccc(-c2ccc(Oc3ccc(F)cc3)cc2)n1)C1CC1 [Compound 33, (S)-N-(1-((6-(4-(4-fluorophenoxy)phenyl)pyridin-2-yl)amino)-3-(1H-imidazol-4-yl)-1-oxopropan-2-yl)cyclopropanecarboxamide]",IC50,human Nav1.7; [2],0.11 ± 0.02 µM
same,Ki,hNav1.7,0.206 ± 0.04 µM
same,Kd,hNav1.7,5.31 ± 0.56 µM
"CS(=O)(=O)N[C@@H](Cc1c[nH]cn1)C(=O)Nc1cccc(-c2ccc(Oc3ccc(F)cc3)cc2)n1 [Compound 38, (S)-N-(6-(4-(4-fluorophenoxy)phenyl)pyridin-2-yl)-3-(1H-imidazol-4-yl)-2-(methylsulfonamido)propanamide]",IC50,human Nav1.7; [2],0.14 ± 0.03 µM
same,Ki,hNav1.7,0.019 ± 0.01 µM
same,Kd,hNav1.7,1.2 ± 0.31 µM
"O=C(N[C@@H](CO)C(=O)Nc1cccc(-c2ccc(Oc3ccc(F)cc3)cc2)n1)c1cccnc1 [Compound 56, N-((S)-1-{6-[4-(4-Fluoro-phenoxy)-phenyl]-pyridin-2-ylcarbamoyl}-2-hydroxy-ethyl)-nicotinamide]",IC50,human Nav1.7; [2],0.14 ± 0.05 µM
same,Ki,hNav1.7,0.195 ± 0.07 µM
same,Kd,hNav1.7,32.2 ± 8.38 µM
"O=C(CO)N[C@@H](CO)C(=O)Nc1cccc(-c2ccc(Oc3ccc(F)cc3)cc2)n1 [Compound 60, (S)-N-{6-[4-(4-Fluoro-phenoxy)-phenyl]-pyridin-2-yl}-3-hydroxy-2-(2-hydroxy-acetylamino)-propionamide]",IC50,human Nav1.7; [1],0.46 ± 0.08 µM
same,Ki,hNav1.7,0.113 ± 0.05 µM
same,Kd,hNav1.7,4.94 ± 0.81 µM
"O=C1NCCN1CCNc1cc([C@H](O)CO)cc(-c2ccc(Oc3ccc(F)cc3)cc2)n1 [Compound 66, (S)-1-(2-((4-(1,2-dihydroxyethyl)-6-(4-(4-fluorophenoxy)phenyl)pyridin-2-yl)amino)ethyl)imidazolidin-2-one]",IC50,human Nav1.7; [1],5 ± 0.88 µM
same,Ki,hNav1.7,1.37 ± 0.17 µM
"N[C@@H](CO)C(=O)Nc1cccc(-c2ccc(Oc3ccc(F)cc3)cc2)n1 [Compound 70, (S)-2-Amino-N-{6-[4-(4-fluoro-phenoxy)-phenyl]-pridin-2-yl}-3-hydroxy-propionamide]",IC50,human Nav1.7; [1],0.27 ± 0.032 µM
same,Ki,hNav1.7,0.046 µM
same,Kd,hNav1.7,0.803 ± 0.2 µM
"O=C(Nc1cccc(-c2ccc(Oc3ccc(F)cc3)cc2)n1)C(O)CO (stereo not shown) [Compound 72, N-(6-(4-(4-fluorophenoxy)phenyl)pyridin-2-yl)-2,3-dihydroxypropanamide]",IC50,human Nav1.7; [1],0.074 µM
same,Ki,hNav1.7,0.143 ± 0.03 µM
same,Kd,hNav1.7,8.91 ± 1.21 µM
"CC(C)C[C@H](NC(=O)CO)C(=O)Nc1cccc(-c2ccc(Oc3ccc(F)cc3)cc2)n1 [Compound 90, (S)-N-(6-(4-(4-fluorophenoxy)phenyl)pyridin-2-yl)-2-(2-hydroxyacetamido)-4-methylpentanamide]",IC50,human Nav1.7; [2],0.07 ± 0.012 µM
"O=C(Nc1cccc(-c2ccc(Oc3ccc(C(F)(F)F)cn3)cc2)n1)C(O)CO (stereo not shown) [Compound 96, 2,3-dihydroxy-N-(6-(4-((5-(trifluoromethyl)pyridin-2-yl)oxy)phenyl)pyridin-2-yl)propanamide]",IC50,human Nav1.7; [2],> 20 µM
"Cn1cnc2ccc(C(=O)Nc3cccc(-c4ccc(Oc5ccc(F)cc5)cc4)n3)cc21 [Compound 98, N-(6-(4-(4-fluorophenoxy)phenyl)pyridin-2-yl)-1-methyl-1H-benzo[d]imidazole-6-carboxamide]",IC50,human Nav1.7; [1],> 20 µM
"Cn1cnc(C[C@H](NC(=O)Nc2cccc(-c3ccc(Oc4ccc(F)cc4)cc3)n2)C(N)=O)c1 [Compound 99, (S)-2-(3-(6-(4-(4-fluorophenoxy)phenyl)pyridin-2-yl)ureido)-3-(1-methyl-1H-imidazol-4-yl)propanamide]",IC50,human Nav1.7; [2],0.667 ± 0.162 µM
